A short description of data set [1]: Particle size measurement before and after size reduction (Mastersizer, NiComp 370, Zetasizer). The data set is classed as physicochemical. The note with it: epinephrine base. How it is done: These techniques involve the use of oversaturated solutions of various solvents, particularly water and isopropanol, at various temperatures and pressures ranging from about 8,000 psi to 30,000 psi and to about 8.3° to 43.3° C. under various passes. […] The particles were lyophilized (freeze-dried) using a bench top lyophilizer (ART Inc.).

Data set [2] is described as follows: Visual observation of discoloration/stability after processing. The data set is classed as physicochemical. The settings on record: epinephrine bitartrate compared with epinephrine base. An excerpt: The main problem was discoloration (a brown color formed) due to degradation.

Experimental findings from patent US10682316B2 (NOVA SOUTHEASTERN UNIVERSITY, priority 2010, dated 2020) are described below.

Where “and” joins values, the source holds several entries; their conditions need not be identical. Equal values may be shown once. Entries after “also recorded” stand apart in the source; their conditions may differ. Read-outs that look alike come from different tables or passages of the source.

As to `CNC[C@H](O)c1ccc(O)c(O)c1` [Epinephrine Base, epinephrine], the “mean±SD size before size reduction” value in data set [1] (Mastersizer (FIG. 3)) is listed as 32.91±0.33 μm. Further, the “Size Before Fabrication (nm)” value in data set [1] (Mastersizer, three measurements and mean) was 33030 nm and 32530 nm and 33160 nm. For the setting “solubility in water”, the “Amount Dissolved %” value turned out to be 2.67%.
For the compound `CNC[C@H](O)c1ccc(O)c(O)c1` [Epinephrine Bit, epinephrine bitartrate], the “Stability / discoloration under fabrication conditions (nanomilling)” value in data set [2] was “more stable than the epinephrine base; also recorded: did not show any discoloration”. In addition, the “Amount Dissolved %” value (solubility in acetone) is recorded as 1.56%; the “Amount Dissolved %” value (solubility in acetonitrile) is given as 0.77%; the “Amount Dissolved %” value (solubility in choloroform) was found to be 0.09%; the “Amount Dissolved %” value (solubility in dichloromethane (DCM)) was determined as 0.00%; the “Amount Dissolved %” value (solubility in ethyl acetate) amounted to 0.63%; the “Amount Dissolved %” value (solubility in hexane) came out at 0.03%. Moreover, the “Amount Dissolved %” value is on record as 0.62% (solubility in isopropyl alcohol), 10.45% (solubility in methanol) and 7.76% (solubility in tetrahydrofuran (THF)).
